Laboratory results from the supplement of paper PMC10307832.

Experiments:
Test in all cases: relative viability (nuclei count vs DMSO), 5 days (fraction); higher = more cells survive
Decitabine + Foretinib = compound: Nc1ncn([C@H]2C[C@H](O)[C@@H](CO)O2)c(=O)n1 [Decitabine] + COc1cc2c(Oc3ccc(NC(=O)C4(C(=O)Nc5ccc(F)cc5)CC4)cc3F)ccnc2cc1OCCCN1CCOCC1 [Foretinib] (partner 0.25 µM)
How it was run: (§1)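 Each reported value is a median over duplicate plates. It expresses relative viability: treated-well nuclei count divided by vehicle-well nuclei count. Lung cancer cell lines in 1536-well plates were dosed by pin tool a day after seeding, alone with one drug or with a fixed anchor-drug dose plus five library-drug doses (not always all listed) in √10 steps, and nuclei were counted after 5 days.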

[1] = compound: O=C(C[C@H]1NCCC[C@@H]1O)Cn1cnc2cc(Br)c(Cl)cc2c1=O (racemic) [Halofuginone] + CC(=O)c1c(C)c2cnc(Nc3ccc(N4CCNCC4)cn3)nc2n(C2CCCC2)c1=O [Palbociclib] (partner 0.5 µM)
How it was run: as §1

[2] = compound: O=C(C[C@H]1NCCC[C@@H]1O)Cn1cnc2cc(Br)c(Cl)cc2c1=O (racemic) [Halofuginone] + C[C@@H](Oc1cc(-c2cnn(C3CCNCC3)c2)cnc1N)c1c(Cl)ccc(F)c1Cl [Crizotinib] (partner 1 µM)
How it was run: as §1

Halofuginone + Olaparib = compound: O=C(C[C@H]1NCCC[C@@H]1O)Cn1cnc2cc(Br)c(Cl)cc2c1=O (racemic) [Halofuginone] + O=C(c1cc(Cc2n[nH]c(=O)c3ccccc23)ccc1F)N1CCN(C(=O)C2CC2)CC1 [Olaparib] (partner 8 µM)
How it was run: as §1

Cell Line | relative viability (Decitabine + Foretinib; first compound 0.04 µM) | relative viability (Decitabine + Foretinib; first compound 0.1265 µM) | relative viability (Decitabine + Foretinib; first compound 0.4 µM) | relative viability (Decitabine + Foretinib; first compound 1.265 µM) | relative viability (Decitabine + Foretinib; first compound 4 µM) | relative viability ([1]; first compound 0.001 µM) | relative viability ([1]; first compound 0.003162 µM) | relative viability ([1]; first compound 0.01 µM) | relative viability ([1]; first compound 0.03162 µM) | relative viability ([1]; first compound 0.1 µM) | relative viability ([2]; first compound 0.001 µM) | relative viability ([2]; first compound 0.003162 µM) | relative viability ([2]; first compound 0.01 µM) | relative viability ([2]; first compound 0.03162 µM) | relative viability ([2]; first compound 0.1 µM) | relative viability (Halofuginone + Olaparib; first compound 0.001 µM) | relative viability (Halofuginone + Olaparib; first compound 0.003162 µM) | relative viability (Halofuginone + Olaparib; first compound 0.01 µM) | relative viability (Halofuginone + Olaparib; first compound 0.03162 µM) | relative viability (Halofuginone + Olaparib; first compound 0.1 µM)
NCI-H650 | 0.929 | 0.667 | 0.506 | 0.363 | 0.319 | 0.362 | 0.337 | 0.302 | 0.294 | 0.305 | 0.77 | 0.714 | 0.73 | 0.604 | 0.344 | 0.395 | 0.389 | 0.408 | 0.36 | 0.286
BEN | 0.596 | 0.566 | 0.35 | 0.437 | 0.38 | 0.487 | 0.471 | 0.441 | 0.473 | 0.385 | 0.979 | 0.784 | 1.07 | 0.772 | 0.479 | 1.06 | 1 | 1.12 | 1.02 | 0.626
ChaGo-K-1 | 0.819 | 0.683 | 0.507 | 0.376 | 0.421 | 0.945 | 0.947 | 0.963 | 0.95 | 0.947 | 1.18 | 1.2 | 1.03 | 1.11 | 0.975 | 0.397 | 0.452 | 0.407 | 0.398 | 0.442
NCI-H23 | 0.692 | 0.533 | 0.393 | 0.39 | 0.359 | 0.694 | 0.501 | 0.479 | 0.562 | 0.331 | 0.582 | 0.724 | 0.486 | 0.609 | 0.218 | 0.409 | 0.291 | 0.326 | 0.271 | 0.223
NCI-H1975 | 0.63 | 0.546 | 0.265 | 0.317 | 0.31 | 0.66 | 0.547 | 0.553 | 0.42 | 0.157 | 1.12 | 0.91 | 1.01 | 0.628 | 0.184 | 0.875 | 0.868 | 0.721 | 0.429 | 0.14
COR-L 105 | 1.2 | 0.98 | 0.881 | 0.633 | 0.554 | 0.441 | 0.403 | 0.396 | 0.392 | 0.413 | 1.01 | 0.853 | 0.722 | 0.718 | 0.515 | 0.695 | 0.607 | 0.698 | 0.664 | 0.625
LK-2 | 1.45 | 1.38 | 0.849 | 0.39 | 0.381 | 0.736 | 0.714 | 0.691 | 0.777 | 0.552 | 0.198 | 0.242 | 0.198 | 0.229 | 0.208 | 0.806 | 0.623 | 0.673 | 0.833 | 0.607
EKVX | 0.65 | 0.995 | 0.605 | 0.353 | 0.365 | 0.377 | 0.352 | 0.415 | 0.444 | 0.306 | 0.921 | 0.9 | 1.04 | 0.891 | 0.635 | 0.861 | 0.849 | 0.789 | 0.843 | 0.645
NCI-H2009 | 1.21 | 0.808 | 0.627 | 0.494 | 0.438 | 0.349 | 0.252 | 0.218 | 0.201 | 0.157 | 1.15 | 1.09 | 1.06 | 0.923 | 0.668 | 0.744 | 0.664 | 0.66 | 0.706 | 0.541
NCI-H838 | 0.716 | 0.492 | 0.357 | 0.387 | 0.301 | 0.234 | 0.25 | 0.199 | 0.171 | 0.0921 | 0.904 | 0.799 | 0.815 | 0.718 | 0.134 | 0.817 | 0.784 | 0.734 | 0.527 | 0.107
NCI-H2085 | 0.695 | 0.556 | 0.407 | 0.457 | 0.426 | 0.521 | 0.461 | 0.458 | 0.461 | 0.487 | 0.994 | 0.82 | 0.776 | 0.831 | 0.52 | 0.795 | 0.816 | 0.728 | 0.736 | 0.684
